Data published in patent US20140323304A1, “HERBICIDE COMPOSITION AND WEED CONTROL METHOD” (SDS BIOTECH K.K., priority 2008, published 2014).

Key:
Assay in all cases: Pot test on the foliar application (post-emergence treatment of weeds)
Format in all cases: in vivo
Conditions in all cases: day 10
Amaranthus viridis = tested on: Amaranthus viridis
Description: (§1) Field soil was packed in a 350 cm^2 plastic pot and seeds of Echinochloa utilis, Digitaria adscendens, Avena fatua, Amaranthus viridis, Chenopodium album and Ipomoea purpurea were sown and covered with soil of about 1 cm thickness. After water absorption and at day 25 after the seeding, sugi-refined oil diluted with a stock solution or water was sprayed uniformly in a spray volume of 200 ml per 1 m^2. The test was performed in a glass greenhouse at a temperature of from 18 to 30° C., and the soil was appropriately moistened from the bottom side.
(§2) Using each of the oily extracts obtained in Preparation Example 2, a flowable (emulsion) formulation was prepared according to Preparation Example 2. The herbicidal activity in the post-emergence stage was evaluated by the method according to Test Example 3 except that the dilution ratio of the spray solution with water was fixed to 4-fold dilution.
(§3) Using the liquid formulation prepared in Formulation Example 3, the herbicidal activity in the post-emergence stage was evaluated by the method according to Test Example 3 except that the test was conducted under a fixed condition that the solution was used as a stock solution without being diluted with water. Also, a formulation using water as a substitute of an oily extract, i.e. a formulation containing sodium bicarbonate only was prepared for comparison, and its herbicidal effect was evaluated as a comparative example. The formulation was sprayed uniformly in a spray volume of 200 ml per 1 m^2.
as §3, with “4,” for “3,”, “treatment of weeds” for “stage”, “calcium borate” for “sodium bicarbonate”
as §3, with “5,” for “3,”, “treatment of weeds” for “stage”, “d-limonene” for “sodium bicarbonate”
(§4) Using these essential oils, a flowable (emulsion) formulation was prepared according to Formulation Example 2. The herbicidal activity in the post-emergence treatment of weeds was evaluated by the method according to Test Example 3 except that the dilution ratio of the spray solution with water was fixed to 2-fold dilution.

Chenopodium album = tested on: Chenopodium album
Description: as §1, §2, §3
as §3, with “4,” for “3,”, “treatment of weeds” for “stage”, “calcium borate” for “sodium bicarbonate”
as §3, with “5,” for “3,”, “treatment of weeds” for “stage”, “d-limonene” for “sodium bicarbonate”
as §4

Ipomoea purpurea = tested on: Ipomoea purpurea
Description: as §1, §2, §3
as §3, with “4,” for “3,”, “treatment of weeds” for “stage”, “calcium borate” for “sodium bicarbonate”
as §3, with “5,” for “3,”, “treatment of weeds” for “stage”, “d-limonene” for “sodium bicarbonate”
as §4

Digitaria adscendens = tested on: Digitaria adscendens
Description: as §1, §2, §3
as §3, with “4,” for “3,”, “treatment of weeds” for “stage”, “calcium borate” for “sodium bicarbonate”
as §3, with “5,” for “3,”, “treatment of weeds” for “stage”, “d-limonene” for “sodium bicarbonate”
as §4

Echinochloa utilis = tested on: Echinochloa utilis
Description: as §1, §2, §3
as §3, with “4,” for “3,”, “treatment of weeds” for “stage”, “calcium borate” for “sodium bicarbonate”
as §3, with “5,” for “3,”, “treatment of weeds” for “stage”, “d-limonene” for “sodium bicarbonate”
as §4

Avena fatua = tested on: Avena fatua
Description: as §1, §2, §3
as §3, with “4,” for “3,”, “treatment of weeds” for “stage”, “calcium borate” for “sodium bicarbonate”
as §3, with “5,” for “3,”, “treatment of weeds” for “stage”, “d-limonene” for “sodium bicarbonate”
as §4

[1] = undiluted liquid formulation 200 ml/m^2, per 1 m^2: 20 ml of the essential oil and 20 ml of d-limonene
[2] = undiluted liquid formulation 200 ml/m^2, per 1 m^2: 20 ml of the essential oil and 12 g of sodium bicarbonate
[3] = undiluted liquid formulation 200 ml/m^2, per 1 m^2: 20 ml of the essential oil and 12 g of calcium borate

C=C(C)[C@H]1CC=C(C)CC1 [Comparative Example (d-limonene only), d-limonene]
Herbicidal activity Amaranthus viridis (Amaranthus viridis; [1]): 6 (56 to 65%)
Herbicidal activity Chenopodium album (Chenopodium album; [1]): 6 (56 to 65%)
Herbicidal activity Ipomoea purpurea (Ipomoea purpurea; [1]): 4 (36 to 45%)
Herbicidal activity Digitaria adscendens (Digitaria adscendens; [1]): 7 (66 to 75%)
Herbicidal activity Echinochloa utilis (Echinochloa utilis; [1]): 5 (46 to 55%)
Herbicidal activity Avena fatua (Avena fatua; [1]): 5 (46 to 55%)

O=C([O-])O.[Na+] [sodium bicarbonate]
Herbicidal activity Amaranthus viridis (Amaranthus viridis; [2]): 3 (26 to 35%)
Herbicidal activity Chenopodium album (Chenopodium album; [2]): 4 (36 to 45%)
Herbicidal activity Ipomoea purpurea (Ipomoea purpurea; [2]): 2 (16 to 25%)
Herbicidal activity Digitaria adscendens (Digitaria adscendens; [2]): 4 (36 to 45%)
Herbicidal activity Echinochloa utilis (Echinochloa utilis; [2]): 3 (26 to 35%)
Herbicidal activity Avena fatua (Avena fatua; [2]): 4 (36 to 45%)

calcium borate
Herbicidal activity Amaranthus viridis (Amaranthus viridis; [3]): 4 (36 to 45%)
Herbicidal activity Chenopodium album (Chenopodium album; [3]): 4 (36 to 45%)
Herbicidal activity Ipomoea purpurea (Ipomoea purpurea; [3]): 3 (26 to 35%)
Herbicidal activity Digitaria adscendens (Digitaria adscendens; [3]): 4 (36 to 45%)
Herbicidal activity Echinochloa utilis (Echinochloa utilis; [3]): 4 (36 to 45%)
Herbicidal activity Avena fatua (Avena fatua; [3]): 5 (46 to 55%)
